Results published in ChEMBL document CHEMBL1128563, “Quantitative structural activity relationship study of bis-tetraazacyclic compounds. A novel series of HIV-1 and HIV-2 inhibitors” (J Med Chem, 1995).
Values belong to the compound of their own block, whether it stands above or below them.

Tests used:
[1] = system: Human immunodeficiency virus 1; assay: Antiretroviral activity against HIV-1 infected HUT-78 cells.; type: functional, organism-based; details: Human immunodeficiency virus 1, HuT78; read-out: Log 1/EC50 (converted)
HuT78 = assay: Cellular cytotoxicity against HUT-78 cells.; type: functional; details: Homo sapiens
[2] = system: Human immunodeficiency virus 2; assay: Antiretroviral activity against HIV-2 infected HUT-78 cells.; details: Human immunodeficiency virus 2, HuT78; read-out: Log 1/EC50 (converted)
[3] = system: Human immunodeficiency virus 1; assay: Inhibition of syncytium formation using HIV-1 IIIB strain gaint cell inhibition assay.; type: functional, organism-based; details: read-out: Log 1/EC50 (converted)

SMILES: NCCCNCCNCCCNCc1ccc(CN2CCCNCCNCCCNCC2)cc1
- EC50 [1]: 372 nM
- CC50 (HuT78): 445000 nM
- EC50 [2]: 708 nM

SMILES: c1ccc(CN2CCCNCCNCCCNCC2)c(CN2CCCNCCNCCCNCC2)c1
- EC50 [1]: 1350 nM
- CC50 (HuT78): 169000 nM

SMILES: c1cc(CN2CCCNCCNCCCNCC2)ccc1CN1CCCNCCNCCNCCC1
- EC50 [1]: 7.94 nM
- CC50 (HuT78): 500000 nM
- EC50 [2]: 56.2 nM
- EC50 [3]: 12.6 nM

SMILES: c1cc(CCCN2CCCNCCNCCCNCC2)ccc1CCCN1CCCNCCNCCCNCC1
- EC50 [1]: 398 nM
- CC50 (HuT78): 283000 nM

SMILES: Cc1cc(CN2CCCNCCNCCCNCC2)c(C)cc1CN1CCCNCCNCCCNCC1
- EC50 [1]: 7.59 nM
- CC50 (HuT78): 250000 nM
- EC50 [2]: 1.29 nM
- EC50 [3]: 33.1 nM

SMILES: COc1cc(CN2CCCNCCNCCCNCC2)c(OC)cc1CN1CCCNCCNCCCNCC1
- EC50 [1]: 7.08 nM
- CC50 (HuT78): 250000 nM
- EC50 [2]: 7.94 nM
- EC50 [3]: 13.2 nM

SMILES: c1cc(CN2CCCNCCCNCCNCCC2)cc(CN2CCCNCCCNCCNCCC2)c1
- EC50 [1]: 324 nM
- CC50 (HuT78): 403000 nM
- EC50 [2]: 646 nM

SMILES: c1ncc(CN2CCCNCCNCCCNCC2)cc1CN1CCCNCCNCCCNCC1
- EC50 [1]: 31.6 nM
- CC50 (HuT78): 395000 nM
- EC50 [2]: 70.8 nM

SMILES: Clc1cc(CN2CCCNCCNCCCNCC2)c(Cl)cc1CN1CCCNCCNCCCNCC1
- EC50 [1]: 10.7 nM
- CC50 (HuT78): 59000 nM
- EC50 [2]: 2.45 nM
- EC50 [3]: 331 nM

SMILES: c1cc(CN2CCCNCCCNCCCNCCC2)cc(CN2CCCNCCCNCCCNCCC2)c1
- EC50 [1]: 16600 nM
- CC50 (HuT78): 193000 nM

SMILES: c1cc(CN2CCCNCCNCCNCCC2)ccc1CN1CCCNCCNCCNCCC1
- EC50 [1]: 25.1 nM
- CC50 (HuT78): 500000 nM
- EC50 [2]: 58.9 nM

SMILES: Clc1c(Cl)c(CN2CCCNCCNCCCNCC2)c(Cl)c(CN2CCCNCCNCCCNCC2)c1Cl
- EC50 [1]: 200 nM
- CC50 (HuT78): 12000 nM
- EC50 [2]: 2.51 nM
- EC50 [3]: 6030 nM

SMILES: c1ccc2c(CN3CCCNCCNCCCNCC3)ccc(CN3CCCNCCNCCCNCC3)c2c1
- EC50 [1]: 55 nM
- CC50 (HuT78): 56000 nM
- EC50 [2]: 38.9 nM
- EC50 [3]: 63.1 nM

SMILES: c1cc(CN2CCCNCCNCCCNCC2)ccc1CN1CCCNCCCNCCCNCC1
- CC50 (HuT78): 225000 nM

SMILES: c1cc(CN2CCCNCCCNCCNCCC2)cc(CN2CCCNCCNCCCNCC2)c1
- EC50 [1]: 85.1 nM
- CC50 (HuT78): 422000 nM
- EC50 [2]: 759 nM

SMILES: Fc1c(CN2CCCNCCNCCCNCC2)cccc1CN1CCCNCCNCCCNCC1
- EC50 [1]: 34.7 nM
- CC50 (HuT78): 202000 nM
- EC50 [2]: 74.1 nM

The next lines start with results.

- EC50 [1]: 9120 nM
SMILES: c1cc(CN2CCCNCCCNCCCNCCC2)ccc1CN1CCCNCCCNCCCNCCC1
- CC50 (HuT78): 49000 nM

- EC50 [1]: 166 nM
- EC50 [2]: 234 nM
SMILES: c1cc(CN2CCNCCCNCCNCC2)ccc1CN1CCNCCCNCCNCC1
- CC50 (HuT78): 216000 nM

- EC50 [1]: 7760 nM
- EC50 [3]: 33900 nM
SMILES: CCN1CCCN(CC)CCN(Cc2ccc(CN3CCCN(CC)CCN(CC)CCCN(CC)CC3)cc2)CCCN(CC)CC1
- CC50 (HuT78): 342000 nM

- EC50 [1]: 501 nM
- EC50 [2]: 676 nM
SMILES: c1cc(CC2CNCCNCCCNCCNC2)ccc1CC1CNCCNCCCNCCNC1
- CC50 (HuT78): 406000 nM

- EC50 [1]: 85.1 nM
- EC50 [2]: 53.7 nM
SMILES: Brc1cc(CN2CCCNCCNCCCNCC2)cc(CN2CCCNCCNCCCNCC2)c1
- CC50 (HuT78): 192000 nM

- EC50 [1]: 158 nM
SMILES: C1CNCCNCCCN[C@H]([C@@H]2CNCCCNCCNCCCN2)CNC1
- CC50 (HuT78): 369000 nM

- EC50 [1]: 692 nM
- EC50 [2]: 708 nM
SMILES: C(CCCN1CCCNCCNCCCNCC1)CCN1CCCNCCNCCCNCC1
- CC50 (HuT78): 307000 nM

- EC50 [1]: 2750 nM
SMILES: c1cc(CN2CCCNCCCNCCCNCC2)cc(CN2CCCNCCCNCCCNCC2)c1
- CC50 (HuT78): 191000 nM

- EC50 [1]: 33.9 nM
- EC50 [2]: 41.7 nM
- EC50 [3]: 4170 nM
SMILES: c1cc(CN2CCCNCCNCCCNCC2)cc(CN2CCCNCCNCCCNCC2)c1
- CC50 (HuT78): 422000 nM

- EC50 [1]: 204 nM
- EC50 [2]: 24.5 nM
- EC50 [3]: 316 nM
SMILES: c1ccc(-c2cc(CN3CCCNCCNCCCNCC3)cc(CN3CCCNCCNCCCNCC3)c2)cc1
- CC50 (HuT78): 198000 nM

- EC50 [1]: 97.7 nM
- EC50 [2]: 66.1 nM
- EC50 [3]: 8130 nM
SMILES: c1cc(CN2CCCNCCNCCCNCC2)nc(CN2CCCNCCNCCCNCC2)c1
- CC50 (HuT78): 409000 nM

- EC50 [1]: 158 nM
- EC50 [2]: 79.4 nM
SMILES: c1ccc2c(CN3CCCNCCNCCCNCC3)cc(CN3CCCNCCNCCCNCC3)cc2c1
- CC50 (HuT78): 208000 nM

- EC50 [1]: 138 nM
- EC50 [3]: 12300 nM
SMILES: C1CNCCNCCCN(CCCN2CCCNCCNCCCNCC2)CCNC1
- CC50 (HuT78): 622000 nM

- EC50 [1]: 7.94 nM
- EC50 [2]: 7.94 nM
- EC50 [3]: 31.6 nM
SMILES: Fc1c(F)c(CN2CCCNCCNCCCNCC2)c(F)c(F)c1CN1CCCNCCNCCCNCC1
- CC50 (HuT78): 48000 nM

- EC50 [1]: 316 nM
SMILES: c1cc(CN2CCCNCCNCCNCCC2)ccc1CN1CCCNCCCNCCCNCCC1
- CC50 (HuT78): 121000 nM

- EC50 [1]: 11200 nM
SMILES: C1CNCCNCCCN(CCN2CCCNCCNCCCNCC2)CCNC1
- CC50 (HuT78): 404000 nM

- EC50 [1]: 64.6 nM
- EC50 [2]: 72.4 nM
- EC50 [3]: 3240 nM
SMILES: O=[N+]([O-])c1cc(CN2CCCNCCNCCCNCC2)ccc1CN1CCCNCCNCCCNCC1
- CC50 (HuT78): 203000 nM

- EC50 [1]: 138 nM
- EC50 [2]: 245 nM
SMILES: Brc1c(CN2CCCNCCNCCCNCC2)cccc1CN1CCCNCCNCCCNCC1
- CC50 (HuT78): 144000 nM

- EC50 [1]: 40.7 nM
- EC50 [2]: 56.2 nM
- EC50 [3]: 64.6 nM
SMILES: O=[N+]([O-])c1cc(CN2CCCNCCNCCCNCC2)cc(CN2CCCNCCNCCCNCC2)c1
- CC50 (HuT78): 45000 nM

- EC50 [1]: 40.7 nM
- EC50 [2]: 61.7 nM
SMILES: c1cc(CN2CCNCCCNCCNCC2)cc(CN2CCNCCCNCCNCC2)c1
- CC50 (HuT78): 192000 nM

- EC50 [1]: 3.98 nM
- EC50 [2]: 6.03 nM
- EC50 [3]: 47.9 nM
SMILES: c1cc(CN2CCCNCCNCCCNCC2)ccc1CN1CCCNCCNCCCNCC1 [PLERIXAFOR]
- CC50 (HuT78): 241000 nM
